Data from ChEMBL document CHEMBL3044631, “Synthesis of 2-[4,5-dimethyl-1-(phenylamino)-1H-imidazol-2-ylthio]-N-(thiazole-2-yl)acetamide derivatives and their anticancer activities” (2013).

Columns and labels:
Format in all cases: functional
HOP-62 = test: Anticancer activity against Homo sapiens (human) HOP62 cells assessed as cell growth promotion at 10 uM after 48 hr by SRB assay
SF-539 = test: Anticancer activity against Homo sapiens (human) SF539 cells after 48 hr by SRB assay; details: SF-539, 48 h
NCI-H23 [1] = test: Anticancer activity against Homo sapiens (human) NCI-H23 cells assessed as cell growth promotion at 10 uM after 48 hr by SRB assay
IGROV-1 = test: Anticancer activity against Homo sapiens (human) IGROV1 cells after 48 hr by SRB assay; details: IGROV-1, 48 h
NCI-H322M = test: Anticancer activity against Homo sapiens (human) NCI-H322M cells assessed as cell growth promotion at 10 uM after 48 hr by SRB assay
NCI/ADR-RES [2] = test: Anticancer activity against Homo sapiens (human) NCI/ADR-RES cells assessed as cell growth promotion at 10 uM after 48 hr by SRB assay
SK-MEL-28 = test: Anticancer activity against Homo sapiens (human) SK-MEL-28 cells assessed as cell growth promotion at 10 uM after 48 hr by SRB assay
COLO 205 [3] = test: Anticancer activity against Homo sapiens (human) COLO205 cells after 48 hr by SRB assay; details: COLO 205, 48 h
Malme-3M = test: Anticancer activity against Homo sapiens (human) MALME-3M cells after 48 hr by SRB assay
NCI-H226 = test: Anticancer activity against Homo sapiens (human) NCI-H226 cells assessed as cell growth promotion at 10 uM after 48 hr by SRB assay
COLO 205 [4] = test: Anticancer activity against Homo sapiens (human) COLO205 cells assessed as cell growth promotion at 10 uM after 48 hr by SRB assay
786-0 [5] = test: Anticancer activity against Homo sapiens (human) 786-0 cells assessed as cell growth promotion at 10 uM after 48 hr by SRB assay
OVCAR-3 = test: Anticancer activity against Homo sapiens (human) OVCAR3 cells after 48 hr by SRB assay; details: OVCAR-3, 48 h
786-0 [6] = test: Anticancer activity against Homo sapiens (human) 786-0 cells after 48 hr by SRB assay; details: 786-0, 48 h
K562 = test: Anticancer activity against Homo sapiens (human) K562 cells after 48 hr by SRB assay; details: K562, 48 h
RXF 393 = test: Anticancer activity against Homo sapiens (human) RXF393 cells assessed as cell growth promotion at 10 uM after 48 hr by SRB assay
MDA-MB-468 = test: Anticancer activity against Homo sapiens (human) MDA-MB-468 cells assessed as cell growth promotion at 10 uM after 48 hr by SRB assay
SK-MEL-2 = test: Anticancer activity against Homo sapiens (human) SK-MEL-2 cells after 48 hr by SRB assay; details: SK-MEL-2, 48 h
UACC-257 [7] = test: Anticancer activity against Homo sapiens (human) UACC257 cells assessed as cell growth promotion at 10 uM after 48 hr by SRB assay
NCI/ADR-RES [8] = test: Anticancer activity against Homo sapiens (human) NCI/ADR-RES cells after 48 hr by SRB assay
KM12 = test: Anticancer activity against Homo sapiens (human) KM12 cells after 48 hr by SRB assay; details: KM12, 48 h
T47D = test: Anticancer activity against Homo sapiens (human) T47D cells after 48 hr by SRB assay
NCI-H23 [9] = test: Anticancer activity against Homo sapiens (human) NCI-H23 cells after 48 hr by SRB assay; details: NCI-H23, 48 h
M14 = test: Anticancer activity against Homo sapiens (human) M14 cells after 48 hr by SRB assay; details: M14, 48 h
SNB-75 = test: Anticancer activity against Homo sapiens (human) SNB75 cells after 48 hr by SRB assay; details: SNB-75, 48 h
UACC-257 [10] = test: Anticancer activity against Homo sapiens (human) UACC257 cells after 48 hr by SRB assay; details: UACC-257, 48 h
MDA-MB-435 = test: Anticancer activity against Homo sapiens (human) MDA-MB-435 cells assessed as cell growth promotion at 10 uM after 48 hr by SRB assay
HCT-116 = test: Anticancer activity against Homo sapiens (human) HCT116 cells after 48 hr by SRB assay; details: HCT-116, 48 h
BT-549 = test: Anticancer activity against Homo sapiens (human) BT549 cells assessed as cell growth promotion at 10 uM after 48 hr by SRB assay
SK-MEL-5 = test: Anticancer activity against Homo sapiens (human) SK-MEL-5 cells assessed as cell growth promotion at 10 uM after 48 hr by SRB assay
PC-3 = test: Anticancer activity against Homo sapiens (human) PC3 cells assessed as cell growth promotion at 10 uM after 48 hr by SRB assay
UO-31 = test: Anticancer activity against Homo sapiens (human) UO31 cells assessed as cell growth promotion at 10 uM after 48 hr by SRB assay
SNB-19 = test: Anticancer activity against Homo sapiens (human) SNB19 cells after 48 hr by SRB assay; details: SNB-19, 48 h
OVCAR-4 = test: Anticancer activity against Homo sapiens (human) OVCAR4 cells assessed as cell growth promotion at 10 uM after 48 hr by SRB assay
HOP-92 = test: Anticancer activity against Homo sapiens (human) HOP92 cells assessed as cell growth promotion at 10 uM after 48 hr by SRB assay
[11] = read-out: LC50 (the source's name)

Cc1nc(SCC(=O)Nc2nc(-c3ccc(Cl)cc3)cs2)n(Nc2ccccc2)c1C
Activity (HOP-62): 48.49% | GI50 (SF-539): 1.9 µM | LC50 (concentration killing 50% of cells) (SF-539): 9.64 µM | TGI (SF-539): 4.27 µM | Activity (NCI-H23 [1]): 12.2% | GI50 (IGROV-1): 3.36 µM | LC50 (concentration killing 50% of cells) (IGROV-1): > 100 µM | TGI (IGROV-1): 20.6 µM | Activity (NCI-H322M): 70.81% | Activity (NCI/ADR-RES [2]): 20.41% | Activity (SK-MEL-28): 54.29% | GI50 (COLO 205 [3]): 4.13 µM | TGI (COLO 205 [3]): 14.5 µM | CC50 (COLO 205 [3]; [11]): 49.8 µM | GI50 (Malme-3M): 10.8 µM | TGI (Malme-3M): 37.6 µM | CC50 (Malme-3M; [11]): > 100 µM | Activity (NCI-H226): 59.84% | Activity (COLO 205 [4]): 65.21% | Activity (786-0 [5]): 54.27% | GI50 (OVCAR-3): 3 µM | LC50 (50% lethal concentration) (OVCAR-3): 36.2 µM | TGI (OVCAR-3): 12.1 µM | GI50 (786-0 [6]): 3.6 µM | LC50 (lethal concentration 50) (786-0 [6]): 38.9 µM | TGI (786-0 [6]): 13.7 µM | GI50 (K562): 0.12 µM | TGI (K562): > 100 µM | CC50 (K562; [11]): > 100 µM | Activity (RXF 393): 72.14% | Activity (MDA-MB-468): 21.05% | GI50 (SK-MEL-2): 10.1 µM | LC50 (concentration killing 50% of cells) (SK-MEL-2): 75.5 µM | TGI (SK-MEL-2): 27.6 µM | Activity (UACC-257 [7]): 46.91% | GI50 (NCI/ADR-RES [8]): 2.6 µM | LC50 (NCI/ADR-RES [8]): 69.9 µM | TGI (NCI/ADR-RES [8]): 7.18 µM | GI50 (KM12): 2.95 µM | LC50 (concentration killing 50% of cells) (KM12): 41.4 µM | TGI (KM12): 14 µM | GI50 (T47D): 1.4 µM | TGI (T47D): 5.24 µM | CC50 (T47D; [11]): 34.6 µM | GI50 (NCI-H23 [9]): 1.85 µM | TGI (NCI-H23 [9]): 6.02 µM | CC50 (NCI-H23 [9]; [11]): 26.3 µM | GI50 (M14): 3.69 µM | LC50 (M14): 51.2 µM | TGI (M14): 16 µM | GI50 (SNB-75): 3.48 µM | LC50 (SNB-75): 49.3 µM | TGI (SNB-75): 16.2 µM | GI50 (UACC-257 [10]): 3.07 µM | LC50 (UACC-257 [10]): > 100 µM | TGI (UACC-257 [10]): 17 µM | Activity (MDA-MB-435): 41% | GI50 (HCT-116): 1.84 µM | LC50 (HCT-116): 15.5 µM | TGI (HCT-116): 4.62 µM | Activity (BT-549): 54% | Activity (SK-MEL-5): 10.19% | Activity (PC-3): 59.13% | Activity (UO-31): 32.86% | GI50 (SNB-19): 9.41 µM | LC50 (SNB-19): 61.7 µM | TGI (SNB-19): 24.6 µM | Activity (OVCAR-4): 35.93%

Cc1nc(SCC(=O)Nc2nccs2)n(Nc2ccccc2)c1C
Activity (HOP-62): 83.75% | Activity (NCI-H23 [1]): 97.67% | Activity (NCI-H322M): 118.03% | Activity (NCI/ADR-RES [2]): 96.1% | Activity (SK-MEL-28): 99.72% | Activity (NCI-H226): 100.29% | Activity (COLO 205 [4]): 117.71% | Activity (786-0 [5]): 103.46% | Activity (RXF 393): 83.96% | Activity (MDA-MB-468): 105.55% | Activity (UACC-257 [7]): 94.83% | Activity (HOP-92): 76.48% | Activity (MDA-MB-435): 104.58% | Activity (BT-549): 96.32% | Activity (SK-MEL-5): 94.75% | Activity (PC-3): 93.56% | Activity (UO-31): 84.18% | Activity (OVCAR-4): 103.25%
